Reference: patent publication US4599336A, “Derivatives of (E)-3-(4-oxo-4H-quinazolin-3-yl)-2-propenamide” (Hoffmann-La Roche Inc., priority 1983, dated 1986)
Like-named read-outs stand apart in the source and are kept apart here. Values belong to the compound of their own block, whether it stands above or below them.

Assays:
[1] = system: SRS-A-induced constriction of the guinea pig ileum; assay: Guinea Pig Ileum, In Vitro (inhibition of SRS-A-induced constriction); type: cell-based; conditions: Cavia porcellus; for IC50: SRS-A-induced constriction, in vitro, read-out: Guinea Pig Ileum, IC50
Protocol: The guinea pig ileum bioassay system has been described by Orange and Austen, Adv. Immunol. […] A 1.5 cm segment is removed from animals weighing 300-400 g. and suspended in an organ bath containing 10 ml. of Tyrodes solution with 10^-6 M atropine sulfate and 10^-6 M pyrilamine maleate. […] The SRS-A utilized in this screen is obtained by challenging chopped lung fragments from actively sensitized guinea pigs with egg albumin, in vitro. A dose-response curve to SRS-A challenge is established for the ileum. […] The drug concentration which inhibits, by 50%, the SRS-A-induced constriction of the guinea pig ileum is determined.

TXA2 synthase = biological target: T1, TXA2 synthase (Homo sapiens, UniProt P24557); assay: Thromboxane Synthase Inhibition, In Vitro; type: biochemical; conditions: human platelet microsomes; for inhibition at 0.1 µM: at 10^-7 M
T1 construct: using microsomal fractions from human platelets as enzyme source; from tissue; host or cells: human platelets, microsomal fraction
T1 sequence (P24557 1-533): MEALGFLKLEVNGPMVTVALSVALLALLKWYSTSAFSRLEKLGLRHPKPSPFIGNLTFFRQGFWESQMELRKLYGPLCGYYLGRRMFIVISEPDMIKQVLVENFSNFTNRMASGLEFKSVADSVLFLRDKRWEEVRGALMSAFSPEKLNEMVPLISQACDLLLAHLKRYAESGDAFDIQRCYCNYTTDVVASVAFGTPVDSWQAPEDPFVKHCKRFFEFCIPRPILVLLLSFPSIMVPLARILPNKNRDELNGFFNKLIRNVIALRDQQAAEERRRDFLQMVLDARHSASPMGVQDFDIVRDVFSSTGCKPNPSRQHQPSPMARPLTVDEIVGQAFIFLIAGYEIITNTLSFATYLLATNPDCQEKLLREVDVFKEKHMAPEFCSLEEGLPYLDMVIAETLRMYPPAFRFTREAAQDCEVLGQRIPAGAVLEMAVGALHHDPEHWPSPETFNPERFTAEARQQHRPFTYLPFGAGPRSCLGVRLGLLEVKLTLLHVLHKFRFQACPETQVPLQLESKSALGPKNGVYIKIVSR
Protocol: TXA2 synthase activity is measured by following the conversion of ^14 C-prostaglandin endoperoxide (PGH2) to ^14 C-thromboxane A2 (TXA2) using microsomal fractions from human platelets as enzyme source. In the aqueous incubation medium, the TXA2 decomposes rapidly into TXB2. The amount of TXA2 synthase is adjusted so that under the conditions of the assay approximately 80-90% of the substrate, PGH2, is converted to product in control tubes. To prepare ^14 C--PGH2, ^14 C--AA (50-60 mCi/mmole; Rose Chem.) is incubated with sheep seminal vesicular gland microsomes for 1.5 minutes at 37° C. and then the ^14 C--PGH2 is extracted with diethylether, purified on columns of Sephadex LH-20 or silicic acid, and stored in acetone at -70° C. Incubations are done as follows. Sufficient ^14 C--PGH2 to yield a final substrate concentration of 10 μM (30,000 cpm) is added to the incubation tubes and then the acetone is removed under nitrogen. The tubes are placed in an ice bath and then 215 μl of ice cold phosphate buffered saline, 10 μl of ethanol (control) or of test drug in ethanol, and 25 μl of the microsomal suspension are added with mixing in that order as rapidly as possible. The tubes are incubated at 22° C. for 2 minutes, the reaction is stopped and then the radioactive products and the uncoverted PGH2 are extracted and analyzed by thin layer chromatography. […] The amount of ^14 C--PGH2 converted to products was used as a measure of TXA2 synthase activity. Inhibitors were tested initially at a final concentration of 100 μM. Results obtained with representative compounds of the present invention in this assay are summarized hereafter in Table I.

Δ^5 -Lipoxygenase = biological target: T2, Δ^5 -Lipoxygenase (Rattus norvegicus, UniProt P12527); assay: Δ^5 -Lipoxygenase Inhibition; type: biochemical; conditions: at 10^-5 M; RBL-1 cell supernatant
T2 construct: using rat basophil leukemia cells (RBL-1 cells) as the enzyme source; endogenous in cells; host or cells: RBL-1 (rat basophil leukemia) cells, 49,300×g supernatant of homogenate
T2 sequence (P12527 1-673): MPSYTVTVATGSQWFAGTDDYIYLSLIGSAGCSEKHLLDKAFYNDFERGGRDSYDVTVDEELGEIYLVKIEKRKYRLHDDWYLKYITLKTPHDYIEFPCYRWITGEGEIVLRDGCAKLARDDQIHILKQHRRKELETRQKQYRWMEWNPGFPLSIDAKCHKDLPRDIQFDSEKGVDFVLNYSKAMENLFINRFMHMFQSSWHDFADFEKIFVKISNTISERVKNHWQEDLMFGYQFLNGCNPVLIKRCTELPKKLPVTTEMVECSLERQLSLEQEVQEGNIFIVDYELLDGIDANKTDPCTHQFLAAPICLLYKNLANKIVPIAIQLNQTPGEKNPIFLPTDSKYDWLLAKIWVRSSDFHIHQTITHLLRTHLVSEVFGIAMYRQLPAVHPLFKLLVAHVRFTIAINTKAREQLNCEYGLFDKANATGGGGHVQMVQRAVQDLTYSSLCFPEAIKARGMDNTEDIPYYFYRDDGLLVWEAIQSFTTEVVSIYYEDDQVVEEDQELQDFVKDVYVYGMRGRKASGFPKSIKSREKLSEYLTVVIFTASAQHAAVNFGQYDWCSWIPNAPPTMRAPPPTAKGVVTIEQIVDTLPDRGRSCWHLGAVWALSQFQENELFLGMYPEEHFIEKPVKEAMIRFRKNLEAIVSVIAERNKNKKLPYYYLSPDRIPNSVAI
Protocol: Δ^5 -Lipoxygenase inhibition was measured by following the conversion of ^14 C-arachidonic acid to ^14 C-5-HETE, using rat basophil leukemia cells (RBL-1 cells) as the enzyme source. These cells were maintained in stationary stock cultures and grown in spinner cultures prior to isolation by centrifugation at 4° C. at 1,500×g for 10 minutes. The cells were washed three times at 4° C. with 0.05M Tris HCl (ph 7.2) containing 1 mM EDTA, 14 μM indomethacin and 0.9% NaCl. They were then homogenized at 0°-4° C. using a glass/glass homogenizer in 0.05M Tris-HCl (pH 7.2) containing 1 mM EDTA and 14 μM indomethacin. The homogenate was then centrifuged at 49,300×g for 20 minutes (0°-4° C.) and the resulting supernatant frozen in small aliquots in a dry ice/acetone bath prior to storage at -80° C. Under these conditions, the enzyme was stable to freezing and thawing and to preincubation for 10 minutes at 30° C.
For enzyme assay, 100-200 μl of enzyme was incubated in the presence and absence of test compound (prepared in DMSO) for 10 minutes at 30° C. in 0.05M Tris-HCl buffer (pH 7.2) containing 1 mM glutathione, 2 mM CaCl2, 14 μM indomethacin and 0.25 and 0.5 mM EDTA (final volume 400 μl). The final DMSO concentration in these assays was 4%. The assay was initiated by the addition of 100 μl ^14 C-arachidonic acid (58 mCi/mmole) and incubations were carried out for 10 minutes at 37° C. in a shaking water bath. The reactions were stopped by the simultaneous addition of 4.0 ml of diethylether and 100 μl of 1.0 m citric acid, while the tubes were vigorously vortexed. The ^14 C-5-HETE generated by the enzyme was extracted into the acidified ether layer which was separated from the aqueous layer by freezing the assay tubes in a dry ice/acetone bath prior to decanting the liquid ether layer. The ether layer was evaporated to dryness under N2, the residue dissolved in 65 μl chloroform:methanol (2:1 v/v), prior to separating ^14 C-5-HETE from other ^14 C-labeled compounds on silica gel impregnated glass fiber TLC plates utilizing an elution solvent of isoctane:methylethylketone:acetic acid (100:9:1 v/v). ^14 C-5-HETE was identified by its co-chromatography with a chemically synthesized standard. The radioactive peaks of the chromatogram were cut out and the radioactivity was quantitated by liquid scintillation counting. The amount of 5-HETE obtained per sample was expressed as the percent of total and was calculated in the basis of: [formula] in order to evaluate the effect of the test compounds, the mean percent inhibition of ^14 C-5-HETE production was calculated. The IC50 for a drug was determined from a linear regression analysis of a plot of the mean percent inhibition vs drug concentration.

[2] = biological target: T3, PAF receptor (dog platelets) (Canis lupus familiaris, UniProt A0A8I3NSH0); assay: PAF Radioreceptor Binding Assay; conditions: 3H-PAF
T3 construct: followed by 2×10^7 dog platelets; from tissue; host or cells: dog platelets, washed, intact
T3 sequence (A0A8I3NSH0 1-343): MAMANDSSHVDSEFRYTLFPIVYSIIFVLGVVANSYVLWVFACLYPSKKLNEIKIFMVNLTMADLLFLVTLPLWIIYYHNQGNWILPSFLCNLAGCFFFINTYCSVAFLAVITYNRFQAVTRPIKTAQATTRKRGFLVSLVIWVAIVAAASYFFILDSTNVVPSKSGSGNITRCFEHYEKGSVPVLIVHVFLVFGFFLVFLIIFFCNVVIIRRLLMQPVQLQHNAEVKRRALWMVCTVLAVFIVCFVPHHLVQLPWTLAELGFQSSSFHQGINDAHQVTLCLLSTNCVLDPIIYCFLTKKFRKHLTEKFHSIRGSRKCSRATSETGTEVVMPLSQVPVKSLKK
Protocol: Platelet rich plasma is prepared by centrifugation of citrate-treated dog blood. Acidification to pH 6.5 with 0.15M citric acid and centrifugation for 10 minutes at 1000 g yields a platelet pellet which is then washed by resuspension in EDTA-Phosphate Buffered Saline (PBS) and recentrifuged. The washed platelet preparation is adjusted to 2×10^7 platelets/50 μl in 0.1% BSA-PBS.
To a […] microfuge tube containing 50 μl silicone oil (specific gravity 1.023) is added buffer, PAF standard or analog, or an extract to bring the aqueous volume to 150 μl. 50 μl of ^3 H-PAF (10,000 cpm, 45 Ci/mM) is added followed by 2×10^7 dog platelets. After mixing, incubating for 10 minutes at room temperature, and centrifuging for 1 minute in a Beckman Microfuge B (8000 g), the pellet is removed by clipping off the tip of the tube, solubilizing the platelets with 200 μl of 50% methanol, and counting in 10 ml of Aquasol. […] Results obtained with representative compounds of the present invention in this assay are summarized hereinafter in Table I.

[3] = system: LTE4-induced increase of vascular permeability in rat skin; assay: Rat Skin Permeability, In Vivo (LTE4-induced wheal); conditions: LTE4 intradermal
[4] = system: LTD4-induced blood pressure changes and arrhythmias; assay: Leukotriene D4 (LTD4) Induced Arrhythmias in Conscious Guinea Pigs; type: in vivo, guinea pig; conditions: 10 mg/kg iv, 5 minutes before LTD4; for Peak Hypertension (Δmm Hg): saline control 30 ± 4; for % Arrhythmias: saline control 33 ± 4; for Peak Hypotension (Δmm Hg): saline control -45 ± 4
Protocol: Male Hartley guinea pigs are anesthetized with sodium pentobarbital and prepared for monitoring direct blood pressure and injecting drugs intravenously by catheterizing the right carotid artery and right jugular vein. Blood pressure, heart rate, and Lead II ECG are monitored in the conscious animal 24 hours later.
Intravenous administration of LTD4 (2.5 μg/kg) is associated with an increase in blood pressure lasting approximately 1-2 minutes followed by a decrease lasting approximately 5-15 minutes. Abnormal beats consisting of premature ventricular contractions, ST elevation or depression, atrioventricular conduction block, or dissociated p waves begin during the rise in blood pressure; the peak effect occurs approximately 40 seconds after LTD4. The percent of abnormal beats was quantitated by determining the number present during the first 2 minutes after injection and calculating the percent increase above the control level. During the hypotensive response, the animal usually collapses during the 2nd or 3rd minute after LTD4 and regains posture approximately 10 minutes after LTD4.
Test compounds were administered 5 minutes before the LTD4 challenge and effects on blood pressure and arrhythmias were monitored.

SMILES: CC(C)c1ccc2ncn(/C=C/C(=O)N(C)CCCCc3cccnc3)c(=O)c2c1
IC50 [1]: 10 µM
inhibition at 0.1 µM (TXA2 synthase): 48%

SMILES: CC(C)c1ccc2ncn(/C=C/C(=O)NCCSc3ccncc3)c(=O)c2c1
IC50 [1]: 10 µM
inhibition at 10 µM (Δ^5 -Lipoxygenase): 56%
inhibition at 0.1 µM (TXA2 synthase): 31%

SMILES: CC(C)c1ccc2ncn(/C=C/C(=O)NCCNCc3cccnc3)c(=O)c2c1
IC50 [1]: 8 µM
inhibition at 1 µM (TXA2 synthase; at 10^-6 M): 33%

SMILES: CC(C)c1cc(C(C)C)c2ncn(/C=C/C(=O)NCCCCc3cccnc3)c(=O)c2c1
IC50 [1]: 1 µM
inhibition at 0.1 µM (TXA2 synthase): 51%

SMILES: CC(C)c1ccc2ncn(/C=C/C(=O)NCCCCn3ccnc3)c(=O)c2c1 [Compound C, N-[4-(1H-imidazol-1-yl)butyl]-(E)-3-[6-(1-methylethyl)-4-oxo-4H quinazolin-3-yl]-2-propenamide]
ED50 ([3]; iv, 0.5 h, i.v., read-out: I.D.50, skin wheal, i.v.): 17 mg/kg
ED50 ([3]; po, read-out: I.D.50, skin wheal, oral): 96 mg/kg

SMILES: CC(C)c1ccc2ncn(/C=C/C(=O)NCCCCc3cccnc3)c(=O)c2c1 [drawing 29]
Peak Hypertension (Δmm Hg) [4]: 21 ± 6 Δmm Hg
% Arrhythmias [4]: 1 ± 1%
Peak Hypotension (Δmm Hg) [4]: -45 ± 4 Δmm Hg

SMILES: CC(C)c1ccc2ncn(/C=C/C(=O)NCCCCOc3cccnc3)c(=O)c2c1 [drawing 30]
Peak Hypertension (Δmm Hg) [4]: 19 ± 7 Δmm Hg
% Arrhythmias [4]: 0 ± 0%
Peak Hypotension (Δmm Hg) [4]: -42 ± 9 Δmm Hg

SMILES: CC(C)c1ccc2ncn(/C=C/C(=O)NCCCCn3ccnc3)c(=O)c2c1 [drawing 31]
Peak Hypertension (Δmm Hg) [4]: 10 ± 0 Δmm Hg
% Arrhythmias [4]: 0 ± 3%
Peak Hypotension (Δmm Hg) [4]: -45 ± 8 Δmm Hg

Further lines, with some results ahead:

IC50 [1]: 5 µM
inhibition at 10 µM (Δ^5 -Lipoxygenase): 10%
IC50 [2]: > 1 µM
SMILES: CC(C)c1ccc2ncn(/C=C/C(=O)NCCCNc3cccnc3)c(=O)c2c1

IC50 [1]: 5 µM
inhibition at 10 µM (Δ^5 -Lipoxygenase): 25%
SMILES: CC(C)c1ccc2ncn(/C=C/C(=O)NCCCCCCNc3ccccn3)c(=O)c2c1

IC50 [2]: > 1 µM
SMILES: CC(C)c1ccc2ncn(/C=C/C(=O)NCCCCCCc3cccnc3)c(=O)c2c1

IC50 [2]: > 1 µM
inhibition at 0.1 µM (TXA2 synthase): 70%
SMILES: CC(C)c1ccc2ncn(/C=C/C(=O)NCCCCOc3cccnc3)c(=O)c2c1 [drawing 14]
inhibition at 10 µM ([1]; at 10^-5 M): 44%
